Source: the NIST ThermoML archive (doi:10.1016/j.fluid.2012.01.014)
Numbers after ± are expanded uncertainties.

Assays:
[1] = cn = amount concentration of the nth substance listed, in mol/dm3; settings: Ring tensiometer
[2] = Ring tensiometer

Structure (SMILES): CCCCCCCCCCCCN(C)CC(=O)[O-].[Na+] [sodium laurylsarcosinate] + O
- surface tension liquid-gas ([1]; 293 K, c1 = 1e-07): 72.4 ± 1.3 mN/m
- surface tension liquid-gas ([1]; 293 K, c1 = 5.01e-07): 72.2 ± 1.3 mN/m
- surface tension liquid-gas ([1]; 293 K, c1 = 1e-06): 72 ± 1.3 mN/m
- surface tension liquid-gas ([1]; 293 K, c1 = 5.01e-06): 71.6 ± 1.3 mN/m
- surface tension liquid-gas ([1]; 293 K, c1 = 1e-05): 71.4 ± 1.3 mN/m
- surface tension liquid-gas ([1]; 293 K, c1 = 5.01e-05): 69 ± 1.3 mN/m
- surface tension liquid-gas ([1]; 293 K, c1 = 0.0001): 65.5 ± 1.3 mN/m
- surface tension liquid-gas ([1]; 293 K, c1 = 0.000501): 48.6 ± 1.2 mN/m
- surface tension liquid-gas ([1]; 293 K, c1 = 0.000631): 46.3 ± 1.1 mN/m
- surface tension liquid-gas ([1]; 293 K, c1 = 0.000708): 44.9 ± 1.1 mN/m
- surface tension liquid-gas ([1]; 293 K, c1 = 0.000794): 43.6 ± 1.1 mN/m
- surface tension liquid-gas ([1]; 293 K, c1 = 0.000891): 42.3 ± 1.1 mN/m
- surface tension liquid-gas ([1]; 293 K, c1 = 0.001): 41.1 ± 1.1 mN/m
- surface tension liquid-gas ([1]; 293 K, c1 = 0.002): 32.9 ± 1.1 mN/m
- surface tension liquid-gas ([1]; 293 K, c1 = 0.00316): 28.3 ± 1.1 mN/m
- surface tension liquid-gas ([1]; 293 K, c1 = 0.00398): 26.9 ± 1.1 mN/m
- surface tension liquid-gas ([1]; 293 K, c1 = 0.00501): 26.5 ± 1.1 mN/m
- surface tension liquid-gas ([1]; 293 K, c1 = 0.01): 26.5 ± 1.1 mN/m
- surface tension liquid-gas ([1]; 303 K, c1 = 1e-07): 71.19 ± 1.3 mN/m
- surface tension liquid-gas ([1]; 303 K, c1 = 5.01e-07): 71.15 ± 1.3 mN/m
- surface tension liquid-gas ([1]; 303 K, c1 = 1e-06): 71.1 ± 1.3 mN/m
- surface tension liquid-gas ([1]; 303 K, c1 = 5.01e-06): 70.72 ± 1.3 mN/m
- surface tension liquid-gas ([1]; 303 K, c1 = 1e-05): 70.28 ± 1.3 mN/m
- surface tension liquid-gas ([1]; 303 K, c1 = 5.01e-05): 67.57 ± 1.3 mN/m
- surface tension liquid-gas ([1]; 303 K, c1 = 0.0001): 65.33 ± 1.3 mN/m
- surface tension liquid-gas ([1]; 303 K, c1 = 0.000501): 48.46 ± 1.2 mN/m
- surface tension liquid-gas ([1]; 303 K, c1 = 0.000631): 46.1 ± 1.1 mN/m
- surface tension liquid-gas ([1]; 303 K, c1 = 0.000708): 44.03 ± 1.1 mN/m
- surface tension liquid-gas ([1]; 303 K, c1 = 0.000794): 42.91 ± 1.1 mN/m
- surface tension liquid-gas ([1]; 303 K, c1 = 0.000891): 41.85 ± 1.1 mN/m
- surface tension liquid-gas ([1]; 303 K, c1 = 0.001): 40.33 ± 1.1 mN/m
- surface tension liquid-gas ([1]; 303 K, c1 = 0.002): 32.39 ± 1.1 mN/m
- surface tension liquid-gas ([1]; 303 K, c1 = 0.00316): 28 ± 1.1 mN/m
- surface tension liquid-gas ([1]; 303 K, c1 = 0.00398): 26.65 ± 1.1 mN/m
- surface tension liquid-gas ([1]; 303 K, c1 = 0.00501): 26.45 ± 1.1 mN/m
- surface tension liquid-gas ([1]; 303 K, c1 = 0.01): 26.45 ± 1.1 mN/m
- surface tension liquid-gas ([1]; 313 K, c1 = 1e-07): 69.59 ± 1.3 mN/m
- surface tension liquid-gas ([1]; 313 K, c1 = 5.01e-07): 69.56 ± 1.3 mN/m
- surface tension liquid-gas ([1]; 313 K, c1 = 1e-06): 69.52 ± 1.3 mN/m
- surface tension liquid-gas ([1]; 313 K, c1 = 5.01e-06): 69.2 ± 1.3 mN/m
- surface tension liquid-gas ([1]; 313 K, c1 = 1e-05): 68.83 ± 1.3 mN/m
- surface tension liquid-gas ([1]; 313 K, c1 = 5.01e-05): 66.49 ± 1.3 mN/m
- surface tension liquid-gas ([1]; 313 K, c1 = 0.0001): 64.45 ± 1.2 mN/m
- surface tension liquid-gas ([1]; 313 K, c1 = 0.000501): 48.32 ± 1.2 mN/m
- surface tension liquid-gas ([1]; 313 K, c1 = 0.000631): 46 ± 1.1 mN/m
- surface tension liquid-gas ([1]; 313 K, c1 = 0.000708): 43.82 ± 1.1 mN/m
- surface tension liquid-gas ([1]; 313 K, c1 = 0.000794): 42.71 ± 1.1 mN/m
- surface tension liquid-gas ([1]; 313 K, c1 = 0.000891): 41.15 ± 1.1 mN/m
- surface tension liquid-gas ([1]; 313 K, c1 = 0.001): 39.51 ± 1.1 mN/m
- surface tension liquid-gas ([1]; 313 K, c1 = 0.002): 31.83 ± 1.1 mN/m
- surface tension liquid-gas ([1]; 313 K, c1 = 0.00316): 27.5 ± 1.1 mN/m
- surface tension liquid-gas ([1]; 313 K, c1 = 0.00398): 26.12 ± 1.1 mN/m
- surface tension liquid-gas ([1]; 313 K, c1 = 0.00501): 25.48 ± 1.1 mN/m
- surface tension liquid-gas ([1]; 313 K, c1 = 0.01): 25.42 ± 1.1 mN/m

Structure (SMILES): CCCCCCCCCCCCCC[N+](C)(C)C.[Br-] [tetradecyltrimethylammonium bromide] + O
- surface tension liquid-gas ([1]; 293 K, c1 = 1e-07): 72.4 ± 1.3 mN/m
- surface tension liquid-gas ([1]; 293 K, c1 = 5.01e-07): 72.3 ± 1.3 mN/m
- surface tension liquid-gas ([1]; 293 K, c1 = 1e-06): 72.2 ± 1.3 mN/m
- surface tension liquid-gas ([1]; 293 K, c1 = 5.01e-06): 71.7 ± 1.3 mN/m
- surface tension liquid-gas ([1]; 293 K, c1 = 1e-05): 71.6 ± 1.3 mN/m
- surface tension liquid-gas ([1]; 293 K, c1 = 5.01e-05): 70.8 ± 1.3 mN/m
- surface tension liquid-gas ([1]; 293 K, c1 = 0.0001): 69.9 ± 1.3 mN/m
- surface tension liquid-gas ([1]; 293 K, c1 = 0.0002): 66.7 ± 1.3 mN/m
- surface tension liquid-gas ([1]; 293 K, c1 = 0.000501): 59.1 ± 1.2 mN/m
- surface tension liquid-gas ([1]; 293 K, c1 = 0.000631): 56.1 ± 1.2 mN/m
- surface tension liquid-gas ([1]; 293 K, c1 = 0.000708): 54.6 ± 1.2 mN/m
- surface tension liquid-gas ([1]; 293 K, c1 = 0.000794): 53.7 ± 1.2 mN/m
- surface tension liquid-gas ([1]; 293 K, c1 = 0.000891): 52.7 ± 1.2 mN/m
- surface tension liquid-gas ([1]; 293 K, c1 = 0.001): 51.9 ± 1.2 mN/m
- surface tension liquid-gas ([1]; 293 K, c1 = 0.002): 43.7 ± 1.1 mN/m
- surface tension liquid-gas ([1]; 293 K, c1 = 0.00316): 36.7 ± 1.1 mN/m
- surface tension liquid-gas ([1]; 293 K, c1 = 0.00398): 36.3 ± 1.1 mN/m
- surface tension liquid-gas ([1]; 293 K, c1 = 0.00501): 36.3 ± 1.1 mN/m
- surface tension liquid-gas ([1]; 293 K, c1 = 0.00708): 36.3 ± 1.1 mN/m
- surface tension liquid-gas ([1]; 293 K, c1 = 0.01): 36.3 ± 1.1 mN/m
- surface tension liquid-gas ([1]; 313 K, c1 = 1e-07): 69.59 ± 1.3 mN/m
- surface tension liquid-gas ([1]; 313 K, c1 = 5.01e-07): 69.54 ± 1.3 mN/m
- surface tension liquid-gas ([1]; 313 K, c1 = 1e-06): 69.48 ± 1.3 mN/m
- surface tension liquid-gas ([1]; 313 K, c1 = 5.01e-06): 69.03 ± 1.3 mN/m
- surface tension liquid-gas ([1]; 313 K, c1 = 1e-05): 68.49 ± 1.3 mN/m
- surface tension liquid-gas ([1]; 313 K, c1 = 5.01e-05): 67.49 ± 1.3 mN/m
- surface tension liquid-gas ([1]; 313 K, c1 = 0.0001): 66.58 ± 1.3 mN/m
- surface tension liquid-gas ([1]; 313 K, c1 = 0.0002): 63.61 ± 1.2 mN/m
- surface tension liquid-gas ([1]; 313 K, c1 = 0.000501): 58.43 ± 1.2 mN/m
- surface tension liquid-gas ([1]; 313 K, c1 = 0.000631): 55.41 ± 1.2 mN/m
- surface tension liquid-gas ([1]; 313 K, c1 = 0.000708): 53.85 ± 1.2 mN/m
- surface tension liquid-gas ([1]; 313 K, c1 = 0.000794): 52.61 ± 1.2 mN/m
- surface tension liquid-gas ([1]; 313 K, c1 = 0.000891): 51.54 ± 1.2 mN/m
- surface tension liquid-gas ([1]; 313 K, c1 = 0.001): 50.21 ± 1.2 mN/m
- surface tension liquid-gas ([1]; 313 K, c1 = 0.002): 42.65 ± 1.1 mN/m
- surface tension liquid-gas ([1]; 313 K, c1 = 0.00316): 36.05 ± 1.1 mN/m
- surface tension liquid-gas ([1]; 313 K, c1 = 0.00398): 35.38 ± 1.1 mN/m
- surface tension liquid-gas ([1]; 313 K, c1 = 0.00501): 35.38 ± 1.1 mN/m
- surface tension liquid-gas ([1]; 313 K, c1 = 0.00708): 35.38 ± 1.1 mN/m
- surface tension liquid-gas ([1]; 313 K, c1 = 0.01): 35.38 ± 1.1 mN/m

Structure (SMILES): O [water]
- surface tension liquid-gas ([2]; 293 K): 72.8 ± 1.3 mN/m
- surface tension liquid-gas ([2]; 303 K): 71.2 ± 1.3 mN/m
- surface tension liquid-gas ([2]; 313 K): 69.6 ± 1.3 mN/m

Structure (SMILES): O [water] + CCCCCCCCCCCCCCCCS(=O)(=O)[O-].[Na+]
- surface tension liquid-gas ([1]; 293 K, c2 = 0): 72.8 ± 1.3 mN/m
- surface tension liquid-gas ([1]; 303 K, c2 = 0): 71.2 ± 1.3 mN/m
- surface tension liquid-gas ([1]; 313 K, c2 = 0): 69.6 ± 1.3 mN/m

Structure (SMILES): O [water] + CCCCCCCCCCCCCCCC[N+](C)(C)C.[Br-]
- surface tension liquid-gas ([1]; 293 K, c2 = 0): 72.8 ± 1.3 mN/m
- surface tension liquid-gas ([1]; 303 K, c2 = 0): 71.2 ± 1.3 mN/m
- surface tension liquid-gas ([1]; 313 K, c2 = 0): 69.6 ± 1.3 mN/m

Structure (SMILES): O [water] + CCCCCCCCCCCCCCCC[n+]1ccccc1.[Br-]
- surface tension liquid-gas ([1]; 293 K, c2 = 0): 72.8 ± 1.3 mN/m
- surface tension liquid-gas ([1]; 303 K, c2 = 0): 71.2 ± 1.3 mN/m
- surface tension liquid-gas ([1]; 313 K, c2 = 0): 69.6 ± 1.3 mN/m

Structure (SMILES): O [water] + CCCCCCCCCCCCCC[N+](C)(C)C.[Br-]
- surface tension liquid-gas ([1]; 293 K, c2 = 0): 72.8 ± 1.3 mN/m
- surface tension liquid-gas ([1]; 313 K, c2 = 0): 69.6 ± 1.3 mN/m

Structure (SMILES): O [water] + CCCCCCCCCCCCN(C)CC(=O)[O-].[Na+]
- surface tension liquid-gas ([1]; 293 K, c2 = 0): 72.8 ± 1.3 mN/m
- surface tension liquid-gas ([1]; 303 K, c2 = 0): 71.2 ± 1.3 mN/m
- surface tension liquid-gas ([1]; 313 K, c2 = 0): 69.6 ± 1.3 mN/m

Structure (SMILES): O [water] + CCCCCCCCCCCCOS(=O)(=O)[O-].[Na+]
- surface tension liquid-gas ([1]; 293 K, c2 = 0): 72.8 ± 1.3 mN/m
- surface tension liquid-gas ([1]; 303 K, c2 = 0): 71.2 ± 1.3 mN/m
- surface tension liquid-gas ([1]; 313 K, c2 = 0): 69.6 ± 1.3 mN/m

Structure (SMILES): O [water] + CCCCCCCCCCCC[N+](C)(C)CC.[Br-]
- surface tension liquid-gas ([1]; 293 K, c2 = 0): 72.8 ± 1.3 mN/m
- surface tension liquid-gas ([1]; 303 K, c2 = 0): 71.2 ± 1.3 mN/m
- surface tension liquid-gas ([1]; 313 K, c2 = 0): 69.6 ± 1.3 mN/m

Structure (SMILES): O [water] + CCCCCCCCCCCC[N+](C)(C)Cc1ccccc1.[Br-]
- surface tension liquid-gas ([1]; 293 K, c2 = 0): 72.8 ± 1.3 mN/m
- surface tension liquid-gas ([1]; 303 K, c2 = 0): 71.2 ± 1.3 mN/m
- surface tension liquid-gas ([1]; 313 K, c2 = 0): 69.6 ± 1.3 mN/m
